Measurements from US7196074B2, “Methods of making, using and pharmaceutical formulations comprising 7α, 11β-dimethyl-17β-hydroxyestra-4, 14-dien-3-one and 17 esters thereof” (The United States of America as represented by the …, priority 2000, dated 2007).

Columns and labels:
ventral prostate weight [1] = assay: Subcutaneous androgenic potency, ventral prostate weight assay in orchidectomized immature rats (injection daily for seven days); assay type: in vivo, Sprague-Dawley rats
Description: (§1) Immature (about 21-day-old) Sprague-Dawley rats were orchidectomized under anesthesia, and randomly assignee to groups of ten animals for each dose level of the active undergoing testing. Each active was dissolved in 10% ethanol/sesame oil and administered by gavage (oral) or subcutaneous injection each day for seven days beginning on the date of the orchidectomy. The animals were sacrificed 24 hours after the last dose, and the ventral prostate and seminal vesicles were excised, cleaned of fat and connective tissue, blotted on moist filter paper and weighed to the nearest 0.1 mg. Regression analysis was performed by conventional methods using a PROPHET data management system. Ventral prostate weight was used as the endpoint because it is the sensitive organ to androgenic stimulation.
as §1, with “by” for “by gavage (oral) or”, “mg. See, e.g., Hershberger, L. et al, Myotrophic Activity of 19-nortestosterone And Other Steroids Determined By Modified Levator And Muscle Method, Proc. Soc. Exptl. Bid. Med. 83 175–180 (1953).” for “mg.”, “system. See, e.g., Bliss, C., The Statistics of Bioassay (Academic Press, New York, 1952); Hollister, C., Nucleic Acids Res. 16 1873–75 (1988).” for “system.”
Immature (about 22-day-old) Sprague-Dawley male rats were orchidectomized under anesthesia, and randomly assignee to groups of ten animals for each dose level of the active undergoing testing. […] Illumination was controlled for 14 hour periods of light and 10 hours of darkness.
Each active was administered by subcutaneous injection of 0.6 mg of test material in aqueous suspending vehicle (ASV) and/or an oily vehicle (10% ethanol/sesame oil) on the day of surgery. Testosterone enanthate in sesame oil was used as a standard. The ventral prostate and seminal vesicles were excised, cleaned of fat and connective tissue, blotted on moist filter paper and weighed to the nearest 0.1 mg. Regression analysis was performed by conventional methods using a PROPHET data management system. Ventral prostate weight was used as the endpoint because it is the sensitive organ to androgenic stimulation.

ventral prostate weight [2] = assay: Duration of androgenic activity after subcutaneous injection, ventral prostate weight over weeks in orchidectomized immature rats; assay type: in vivo, Sprague-Dawley rats; conditions: for ventral prostate weight over time after single subcutaneous injection (in words): 0.6 mg in 0.2 ml aqueous vehicle; for AUC of ventral prostate weight, times greater than for testosterone enanthate in oily carrier: active in aqueous vehicle versus testosterone enanthate in sesame oil/oily carrier, single subcutaneous 0.6 mg
Description: as §1, with “was” for “was dissolved in 10% ethanol/sesame oil and”, “by” for “by gavage (oral) or”
Except for testosterone enanthate, each active was formulated in two different carriers: (1) an aqueous suspension and (2) in sesame oil. Testosterone enanthate was formulated using the sesame oil carrier only, because it exists as a liquid at room temperature and could not therefore be formulated as an aqueous suspension.
(§2) The carrier used to provide the aqueous suspension was formulated as follows: 1 g benzyl alcohol, 0.5 g sodium carboxylethyl cellulose 50, 0.376 g disodium hydrogen phosphate dihydrate, 1.495 g sodium dihydrogen phosphate dihydrate, with water for injection (WFI) being added to bring volume of the carrier up to 100 ml.
Each formulation was prepared at a concentration of 0.6 mg/0.2 ml.
Immature (about 21-day-old) Sprague-Dawley rats were orchidectomized under anesthesia, and randomly assignee to groups of 40 or more. Animals received a single subcutaneous injection of 0.6 mg of each ester in 0.2 ml of an aqueous suspending carrier and/or oily carrier (10% ethanol/90% sesame oil or ethyl oleate) on the date of the orchidectomy. In cases where the ester was not solid at room temperature, 10% ethanol/sesame oil or ethyl oleate was used as the carrier. In this example, the carrier used to provide the aqueous suspension was formulated as follows: 1 g benzyl alcohol, 0.5 g sodium carboxylethyl cellulose 50, 0.376 g disodium hydrogen phosphate dihydrate, 1.495 g sodium dihydrogen phosphate dihydrate, with water for injection (WFI) being added to bring volume of the carrier up to 100 ml.
Five animals from each group were sacrificed at weekly or biweekly intervals, and the ventral prostate and seminal vesicles were excised, cleaned of fat and connective tissue, blotted on moist filter paper and weighed to the nearest 0.1 mg.
Ventral prostate weight was used as the endpoint because it is the sensitive organ to androgenic stimulation. Regression analysis was performed by conventional methods using the PROPHET data management system previously identified.
Immature (about 21-day-old) Sprague-Dawley rats were orchidectomized under anesthesia, and randomly assignee to groups of 40 or more. Animals received a single subcutaneous injection of 0.6 mg of the undecanoate in 0.2 ml of an aqueous suspending carrier and/or oily carrier (10% ethanol/90% sesame oil containing 5 mg/ml chlorobutanol as a preservative, or ethyloleate) on the date of the orchidectomy. The enanthate ester was formulated using the 10% ethanol/sesame oil or ethyloleate carrier as a first standard, with the 10% ethanol/sesame oil carrier used as a second standard.
as §2, with “In this example, the” for “The”
Immature (about 21-day-old) Sprague-Dawley rats were orchidectomized under anesthesia, and randomly assignee to groups of 40 or more. […] The enanthate ester was formulated using the 10% ethanol/sesame oil or ethyloleate carrier as a first standard, with the 10% ethanol/sesame oil carrier used as a second standard.

CCCC[C@H]1CC[C@H](C(=O)O[C@H]2CC[C@H]3[C@H]4[C@H]([C@@H](C)C[C@]23C)[C@H]2CCC(=O)C=C2C[C@H]4C)CC1 (relative stereo) [Compound I, 7α,11β-Dimethyl-17β-hydroxy-4-estren-3-one 17β-trans-4-n-butylcyclohexane carboxylate]
activity after subcutaneous administration (in words) (ventral prostate weight [1]; subcutaneous injection daily for 7 days in 10% ethanol/sesame oil, ventral prostate weight): relatively weak activity
Androgenic Potency (activity of corresponding alcohol) (ventral prostate weight [1]; ventral prostate weight assay following subcutaneous administration, alcohol of G = 1.0 (assigned), value is for the free alcohol of the listed ester): 19.3
ventral prostate weight over time after single subcutaneous injection (in words) (ventral prostate weight [2]): most dramatic increase and maintenance of ventral prostate weight
activity in potency and duration after subcutaneous injection (in words), FIG. 5 (ventral prostate weight [2]; 0.6 mg/0.2 ml, aqueous suspension or sesame oil, ventral prostate weight): far exceeds the activity exhibited by the comparative esters
AUC of ventral prostate weight, times greater than for testosterone enanthate in oily carrier (ventral prostate weight [2]): about 3 times
AUC of ventral prostate weight over the 10-week period, rank among bucyclate esters (ventral prostate weight [2]; single subcutaneous 0.6 mg suspended in aqueous carrier, FIG. 9): greatest AUC

CCCCCCCCCCC(=O)O[C@H]1CC[C@H]2[C@H]3[C@H]([C@@H](C)C[C@]12C)[C@H]1CCC(=O)C=C1C[C@H]3C [Compound II, 7α,11β-dimethyl-17β-hydroxyestr-4-en-3-one 17-undecanoate]
subcutaneous androgenic activity relative to testosterone (ventral prostate weight [1]; subcutaneous injection daily for 7 days in 10% ethanol/sesame oil (oily carrier), ventral prostate weight): 0.52 times
ventral prostate weight over time after single subcutaneous injection (in words) (ventral prostate weight [2]; listed as CDB-4521): most dramatic increases and maintenance of ventral prostate weight
AUC of ventral prostate weight, times greater than for testosterone enanthate in oily carrier (ventral prostate weight [2]): about 3 times
area under the curve (AUC, trapezoidal rule) of ventral prostate weight (ventral prostate weight [2]; single subcutaneous 0.6 mg in aqueous vehicle, 10 week period, FIG. 15): 1817 mg-weeks
